Laboratory results published in patent publication EP2351737A1, “3-Amino-1-arylpropyl indoles and aza-substituted indoles” (F. Hoffmann-La Roche AG, priority 2005, dated 2007).

Tests used:
[1] = target: T1, Human Serotonin Transporter (hSERT) (Homo sapiens, UniProt P31645); experiment: Human Serotonin Transporter (hSERT) Scintillation Proximity Assay (SPA), competition with [3H]-Citalopram; type: binding; settings: membranes of HEK-293 cells expressing recombinant hSERT, Ki by Cheng-Prusoff; for Ki: read-out: pKi SERT (converted)
T1 construct: expressed in transfected cells; membranes prepared from them
T1 sequence (P31645 whole entry): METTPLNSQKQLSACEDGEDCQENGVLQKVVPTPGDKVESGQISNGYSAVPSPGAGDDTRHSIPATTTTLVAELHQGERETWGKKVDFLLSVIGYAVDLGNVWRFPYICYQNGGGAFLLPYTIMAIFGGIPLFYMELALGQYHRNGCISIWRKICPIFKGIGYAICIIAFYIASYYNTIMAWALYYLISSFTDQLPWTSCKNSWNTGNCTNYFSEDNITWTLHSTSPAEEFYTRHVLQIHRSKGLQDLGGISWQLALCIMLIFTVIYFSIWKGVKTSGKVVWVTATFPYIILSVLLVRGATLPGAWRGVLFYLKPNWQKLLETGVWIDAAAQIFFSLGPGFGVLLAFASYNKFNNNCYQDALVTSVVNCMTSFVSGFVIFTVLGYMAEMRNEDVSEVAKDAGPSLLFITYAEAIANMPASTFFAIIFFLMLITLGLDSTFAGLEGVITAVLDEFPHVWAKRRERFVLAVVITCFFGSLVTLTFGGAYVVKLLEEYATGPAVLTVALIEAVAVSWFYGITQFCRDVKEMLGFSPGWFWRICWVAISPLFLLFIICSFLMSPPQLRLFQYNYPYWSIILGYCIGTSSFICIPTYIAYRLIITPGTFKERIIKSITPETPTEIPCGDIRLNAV
Excerpt: Screening for Human Serotonin Transporter (hSERT) Antagonists Using a Scintillation Proximity Assay (SPA)
Scintillation Proximity Assay (SPA) works by bringing radioligand within close proximity to the bead's scintillant to stimulate light emission. […] Unbound radioligand produced no signal as a result of distant proximity to scintillant (lack of energy transfer).

[2] = target: Human Norepinephrine Transporter (hNET) (Homo sapiens, UniProt P23975); experiment: Human Norepinephrine Transporter (hNET) Scintillation Proximity Assay (SPA), competition with [3H]-Nisoxetine; settings: membranes of HEK-293 cells expressing recombinant hNET, Ki by Cheng-Prusoff; for Ki: pKi NET
Sequence of Human Norepinephrine Transporter (hNET) (P23975 whole entry): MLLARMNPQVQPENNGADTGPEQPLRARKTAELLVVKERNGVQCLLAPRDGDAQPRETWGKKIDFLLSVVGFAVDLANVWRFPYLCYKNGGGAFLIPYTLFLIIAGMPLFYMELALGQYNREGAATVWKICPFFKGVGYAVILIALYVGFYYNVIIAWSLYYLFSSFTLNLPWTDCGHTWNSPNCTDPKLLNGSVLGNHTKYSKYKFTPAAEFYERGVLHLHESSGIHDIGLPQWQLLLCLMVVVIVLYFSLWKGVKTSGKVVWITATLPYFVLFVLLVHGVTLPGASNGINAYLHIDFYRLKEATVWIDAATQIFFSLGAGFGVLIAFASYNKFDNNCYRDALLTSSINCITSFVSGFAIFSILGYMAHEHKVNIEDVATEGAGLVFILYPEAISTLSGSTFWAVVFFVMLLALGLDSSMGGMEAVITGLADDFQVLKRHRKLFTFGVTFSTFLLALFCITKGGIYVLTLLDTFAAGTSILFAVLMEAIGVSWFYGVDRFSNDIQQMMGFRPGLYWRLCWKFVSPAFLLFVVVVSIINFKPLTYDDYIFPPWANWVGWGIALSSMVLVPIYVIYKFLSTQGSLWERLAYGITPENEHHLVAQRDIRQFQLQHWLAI

| Compound | Ki [1] [µM] | Ki [2] [µM] | pKi SERT [1] | pKi NET [2] |
| --- | --- | --- | --- | --- |
| CNCCC(c1ccccc1)c1ccc2[nH]cc(S(C)(=O)=O)c2c1 (stereo not drawn) [Compound 16] | 0.151 | 0.724 |  |  |
| Cn1cc(C#N)c2cc(C(CCN)c3ccccc3)cc(F)c21 (stereo not drawn) [Compound 126, 5-(3-Amino-1-phenyl-propyl)-7-fluoro-1-methyl-1H-indole-3-carbonitrile] | 0.0229 | 0.398 |  |  |
| CNCCC(c1ccccc1)c1ccc2[nH]c(C#N)cc2c1 (stereo not drawn) [Compound 128, 5-(3-Methylamino-1-phenyl-propyl)-1H-indole-2-carbonitrile] | 0.00102 | 0.0575 |  |  |
| [3,3-Bis-(1H-indol-5-yl)-propyl]-methyl-amine [Compound 111] |  |  | 7.92 | 9.12 |
| CNCCC(c1ccccc1)c1cc(Cl)c2[nH]ncc2c1 (stereo not drawn) [Compound 77, [3-(7-Chloro-1H-indazol-5-yl)-3-phenyl-propyl]-methyl-amine] | 0.00912 | 0.0055 |  |  |
| CCOc1n[nH]c2ccc(C(CCNC)c3ccccc3)cc12 (stereo not drawn) [Compound 79, [3-(3-Ethoxy-1H-indazol-5-yl)-3-phenyl-propyl]-methyl-amine] | 0.0269 | 0.132 |  |  |
| CNCC[C@H](c1ccccc1)c1cc(OC)c2[nH]ncc2c1 [Compound 83, [3-(7-Methoxy-1H-indazol-5-yl)-3-(R)-phenyl-propyl]-methyl-amine] | 0.0115 | 0.0537 |  |  |
| [3-(7-Fluoro-1H-indol-5-yl)-3-(3-fluoro-phenyl)-propyl]-methyl-amine [Compound 93] |  |  | 7.76 | 8.41 |
| CNCCC(c1ccccc1)c1cc(C)c2[nH]ncc2c1 (stereo not drawn) [Compound 76, Methyl-[3-(7-methyl-1H-indazol-5-yl)-3-phenyl-propyl]-amine] | 0.0174 | 0.0257 |  |  |
